Test results from patent US8383627B2, “Crystalline polymorph of doxazosin mesylate (form IV) and process for preparation thereof” (CIPLA Limited, priority 2007, dated 2013).
Counter-ions that a name gives are not always drawn. One block for each compound: values may come before it.

Test: Comparative intrinsic dissolution study
Assay type: physicochemical
Settings: for % Release of Doxazosin Mesylate: 50 mg pellet, 900 ml 0.01N HCl, 37±0.5° C., paddle 50 rpm
Procedure: To measure the intrinsic dissolution of the doxazosin mesylate Form IV, Form M and Form D, samples were measured to compare the influence of the different parameter settings. At appropriate time intervals, an automated sample collector removes aliquots from dissolution medium for analysis. The time interval for sampling can vary, for example, from 2 to 30 minutes, depending on the properties of the drug and dissolution medium used. Suitable dissolution equipment for these operations include LAB INDIA DISSO 2000.
A tableting mixture (50 mg) comprising solely doxazosin mesylate (i.e. with no excipients) was prepared and compressed to a pellet using a manual hand press operating at a compression pressure of 5 tones for 5 minutes.
In-vitro dissolutions studies were performed on the 50 mg pellet in a LAB INDIA DISSO 2000.
The pellet was fixed in a PFTE holder, such that only the pellet surface came into contact with the dissolution medium. The PFTE loaded holder was placed in the dissolution vessel containing 900 ml of 0.01N HCl at 37±0.5° C. Three pellets were measured for each run of the design of the experiments. Stirring was performed with a paddle rotating at 50 rpm. The dissolution was followed up to 1440 min and the concentration of active ingredient, doxazosin mesylate, dissolved in the test medium was determined by removing samples of 10 ml at the specified time.
The concentration of doxazosin mesylate was quantified by HPLC UV method at a maximum wavelength of 245 nm under conditions as specified: • Mobile Phase: 450:450:100:: Buffer:MeOH:Acetonitrile • Buffer: 0.3% v/v Diethylamine. The pH adjusted to 2.5 with orthophosphoric acid • Column: Inersil ODS 15 cm • Flow: 1.0 ml/min
The percentage of doxazosin mesylate released was plotted against time. The intrinsic dissolution rate was derived from the slope of this curve.

- % Release of Doxazosin Mesylate (5 minutes, listed as Form -D): 1.8%
- % Release of Doxazosin Mesylate (15 minutes, listed as Form -D): 3.5%
- % Release of Doxazosin Mesylate (30 minutes, listed as Form -D): 6.1%
- % Release of Doxazosin Mesylate (45 minutes, listed as Form -D): 8.8%
- % Release of Doxazosin Mesylate (60 minutes, listed as Form -D): 10.7%
- % Release of Doxazosin Mesylate (120 minutes, listed as Form -D): 18.5%
- % Release of Doxazosin Mesylate (180 minutes, listed as Form -D): 27.0%
- % Release of Doxazosin Mesylate (240 minutes, listed as Form -D): 32.3%
- % Release of Doxazosin Mesylate (360 minutes, listed as Form -D): 51.0%
- % Release of Doxazosin Mesylate (480 minutes, listed as Form -D): 65.1%
- % Release of Doxazosin Mesylate (600 minutes, listed as Form -D): 72.7%
- % Release of Doxazosin Mesylate (720 minutes): 74.5%
- % Release of Doxazosin Mesylate (720 minutes, listed as Form -D): 74.5%
- % Release of Doxazosin Mesylate (900 minutes, listed as Form -D): 76.0%
- % Release of Doxazosin Mesylate (1080 minutes, listed as Form -D): 75.8%
- % Release of Doxazosin Mesylate (1260 minutes, listed as Form -D): 75.6%
SMILES: COc1cc2nc(N3CCN(C(=O)C4COc5ccccc5O4)CC3)nc(N)c2cc1OC (stereo not drawn) [Form D, doxazosin mesylate]

- % Release of Doxazosin Mesylate (5 minutes, listed as Form -M): 1.5%
- % Release of Doxazosin Mesylate (15 minutes, listed as Form -M): 2.8%
- % Release of Doxazosin Mesylate (30 minutes, listed as Form -M): 5.0%
- % Release of Doxazosin Mesylate (45 minutes, listed as Form -M): 6.5%
- % Release of Doxazosin Mesylate (60 minutes, listed as Form -M): 8.1%
- % Release of Doxazosin Mesylate (120 minutes, listed as Form -M): 14.1%
- % Release of Doxazosin Mesylate (180 minutes, listed as Form -M): 20.8%
- % Release of Doxazosin Mesylate (240 minutes, listed as Form -M): 26.5%
- % Release of Doxazosin Mesylate (360 minutes, listed as Form -M): 39.5%
- % Release of Doxazosin Mesylate (480 minutes, listed as Form -M): 50.2%
- % Release of Doxazosin Mesylate (600 minutes, listed as Form -M): 58.8%
- % Release of Doxazosin Mesylate (720 minutes, listed as Form -M): 67.0%
- % Release of Doxazosin Mesylate (720 minutes, listed as form M): 67.0%
- % Release of Doxazosin Mesylate (900 minutes, listed as Form -M): 74.9%
- % Release of Doxazosin Mesylate (1080 minutes, listed as Form -M): 78.0%
- % Release of Doxazosin Mesylate (1260 minutes, listed as Form -M): 79.5%
SMILES: COc1cc2nc(N3CCN(C(=O)C4COc5ccccc5O4)CC3)nc(N)c2cc1OC (stereo not drawn) [Form M, doxazosin mesylate]

- % Release of Doxazosin Mesylate (5 minutes, monomethanesulfonate): 1.6%
- % Release of Doxazosin Mesylate (15 minutes, monomethanesulfonate): 3.6%
- % Release of Doxazosin Mesylate (30 minutes, monomethanesulfonate): 6.6%
- % Release of Doxazosin Mesylate (45 minutes, monomethanesulfonate): 9.5%
- % Release of Doxazosin Mesylate (60 minutes, monomethanesulfonate): 12.0%
- % Release of Doxazosin Mesylate (120 minutes, monomethanesulfonate): 21.8%
- % Release of Doxazosin Mesylate (180 minutes, monomethanesulfonate): 34.5%
- % Release of Doxazosin Mesylate (240 minutes, monomethanesulfonate): 45.7%
- % Release of Doxazosin Mesylate (360 minutes, monomethanesulfonate): 66.2%
- % Release of Doxazosin Mesylate (480 minutes, monomethanesulfonate): 77.4%
- % Release of Doxazosin Mesylate (600 minutes, monomethanesulfonate): 80.0%
- % Release of Doxazosin Mesylate (720 minutes, listed as Form -IV, monomethanesulfonate): 81.1%
- % Release of Doxazosin Mesylate (720 minutes, monomethanesulfonate): 81.1%
- % Release of Doxazosin Mesylate (900 minutes, monomethanesulfonate): 79.7%
- % Release of Doxazosin Mesylate (1080 minutes, monomethanesulfonate): 79.2%
- % Release of Doxazosin Mesylate (1260 minutes, monomethanesulfonate): 77.6%
- higher dissolution rate compared with known Form D (at 30 minutes): 8%
- higher dissolution rate compared with known Form D (at 60 minutes): 10.84%
- higher dissolution rate compared with known Form D (at 120 minutes): 15.14%
- higher dissolution rate compared with known Form D (at 180 minutes): 21.74%
- higher dissolution rate compared with known Form D (at 240 minutes): 29.33%
- rate of dissolution (compared with known forms, Form M and Form D): superior rate of dissolution
SMILES: COc1cc2nc(N3CCN(C(=O)C4COc5ccccc5O4)CC3)nc(N)c2cc1OC (stereo not drawn) [Form IV, 1-(4-amino-6,7-dimethoxy-2-quinazolinyl)-4-(2,3-dihydro-1,4-benzodioxin-2-yl)carbonyl piperazine monomethanesulfonate]
